Data published in US9695148B2, “2-pyridone compound” (TAISHO PHARMACEUTICAL CO., LTD., priority 2012, dated 2017).

Legend:
human liver GK = biological target: T1, human liver GK (Homo sapiens, UniProt P35557); experiment: GK activation test; format: biochemical; settings: GST-fused human liver GK, 4 mM glucose, 2 mM ATP, absorbance at 405 nm after 15 minutes; read-out: EC50 (test compound concentration needed to activate 50% of the maximum activation ability)
T1 construct: GST (glutathione S-transferase) (N); made in house; host or cells: E. coli
T1 sequence (P35557 1-466 isoform P35557-2): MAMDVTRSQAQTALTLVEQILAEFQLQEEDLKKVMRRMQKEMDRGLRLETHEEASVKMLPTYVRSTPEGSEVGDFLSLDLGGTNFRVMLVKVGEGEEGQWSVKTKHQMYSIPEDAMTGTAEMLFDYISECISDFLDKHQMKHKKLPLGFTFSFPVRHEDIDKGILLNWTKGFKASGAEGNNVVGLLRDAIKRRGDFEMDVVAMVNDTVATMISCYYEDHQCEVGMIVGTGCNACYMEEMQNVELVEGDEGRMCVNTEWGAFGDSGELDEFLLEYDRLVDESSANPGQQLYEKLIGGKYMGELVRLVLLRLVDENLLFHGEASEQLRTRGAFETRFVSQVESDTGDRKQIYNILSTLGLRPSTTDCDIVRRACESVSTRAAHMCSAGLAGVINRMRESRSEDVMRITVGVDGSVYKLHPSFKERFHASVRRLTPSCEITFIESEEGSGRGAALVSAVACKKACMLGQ
Procedure: The GK activation test for the test compounds was carried out by the method of Van Schaftingen et al. (Eur. J. Biochem. 179:179-184, 1989) with partial modifications. The GK activity was measured by the change in the absorbance based on an amount of thio-NADH, which is a reduced form product converted from thio-NAD+ (thionicothinamide-adeninedinucleotide) when dehydrogenating glucose 6-phosphate, produced by GK using glucose as a matrix, with G6PDH (glucose-6-phosphate dehydrogenase).
The enzyme source used in this assay, human liver GK, was expressed in E. coli as a fusion protein with GST (glutathione S-transferase) added to the amino terminus and was purified using Glutathione Sepharose 4B (Amersham Biosciences).
The test was carried out using flat-bottom 96-well half area microplates (Corning). A solution of the test compound in dimethyl sulfoxide (DMSO) at a final concentration of 1% in DMSO and DMSO as a control were added to each well of the plates. Further, 25 mM Hepes-KOH (pH=7.1), 25 mM KCl, 2 mM MgCl2, 2 mM thio-NAD+, 4 mM glucose, 1 mM DTT (dithiothreitol), 0.01 units/μL G6PDH and 2 μg/mL human liver GK were added as the final concentrations, respectively, to each of the wells. Subsequently, ATP was added to each of the wells to give the final concentration of 2 mM, and the reaction was started. The microplates were allowed to stand at room temperature. After 15 minutes from the start of reaction, the absorbance at 405 nm was measured using an absorption spectrometer for microplate.
The GK activity maximally activated by the test compound was taken as the maximum activation ability, and the test compound concentration (nM) needed to activate 50% of that maximum activation ability was expressed as EC50.

C57BL6/J mice = experiment: Hypoglycemia test using C57BL6/J mice; format: in vivo; settings: oral, ad libitum fed C57BL6/J mice, plasma glucose AUC 0-6 hours vs control group
Procedure: The test to verify the hypoglycemic effect of the test compounds was carried out in accordance with a method commonly used and represented by the method of Grimsby et. al (Science 301: 370-373, 2003).
The body weight of C57BL6/J mice (N=6), who were ad libitum fed before the test, was measured. The test compound was suspended or dissolved in the base to be administered (0.5% methyl cellulose) at a concentration of 0.06 to 20 mg/mL. The mice were orally administered with 5 mL/kg of a drug solution (equivalent to 0.3 to 100 mg/kg of the test compound) or control (only the base to be administered). About 60 μL of blood was collected from the tail vein using a capillary tube immediately before administration of the test compound and 0.5, 1, 2, 4 and 6 hours after administration of the test compound. The collected blood was centrifuged and subsequently measured for the plasma glucose concentration. The area under the curve (AUC) was calculated from changes over time in the plasma glucose concentration after administration of the test compound, and a reduction rate (%) to AUC of the control group was calculated. The dose at which an AUC decreasing percentage was 20% (ED20 value; mg/kg) was calculated from the dose response curve having the AUC reduction rate plotted on the vertical axis and the dose plotted on the horizontal axis.

Structure (SMILES) | EC50 (human liver GK) [µM] | ED20 (dose at which the plasma glucose AUC decreasing percentage was 20%) (C57BL6/J mice) [mg/kg]
CC(F)(F)c1ccc([C@@H](C[C@H]2CCC(=O)N2)c2ccc(C3CC3)c(=O)[nH]2)cc1 (single isomer, unassigned) [Compound B] | 1.33 | 15.6
CCc1ccc([C@@H](C[C@H]2CCC(=O)N2)c2ccc(C3CC3)c(=O)[nH]2)cc1 [Compound A] | 0.52 | 11.5
O=C1CC[C@H](C[C@H](c2ccc(C(F)F)cc2)c2ccc(C3CC3)c(=O)[nH]2)N1 [Compound C] | 0.597 | 32.0
CC(F)(F)c1ccc([C@@H](C[C@H]2CCC(=O)N2)c2ccc(C3CC3)c(=O)[nH]2)cc1 [Compound [1], 3-cyclopropyl-6-{(1R)-1-[4-(1,1-difluoroethyl)phenyl]-2-[(2R)-5-oxopyrrolidin-2-yl]ethyl}pyridin-2(1H)-one] | 0.295 | 4.2
